Measurements from PMC7312435, “Direct inhibition of the TLR4/MyD88 pathway by geniposide suppresses HIF‐1α‐independent VEGF expression and angiogenesis in hepatocellular carcinoma” (British Journal of Pharmacology, 2020).

Molecular target: T1, recombinant human TLR4 (Homo sapiens, UniProt O00206)
T1 construct: amine-coupled to CM5 chip
Experiment: surface plasmon resonance (Biacore X100), steady-state fit
Assay type: binding
Conditions: PBS with 0.05% Triton X-100, pH 7.4; geniposide 0-12.8 uM; TLR4 immobilised on CM5 chip (1,300 RU)

T1 sequence (O00206 24-839): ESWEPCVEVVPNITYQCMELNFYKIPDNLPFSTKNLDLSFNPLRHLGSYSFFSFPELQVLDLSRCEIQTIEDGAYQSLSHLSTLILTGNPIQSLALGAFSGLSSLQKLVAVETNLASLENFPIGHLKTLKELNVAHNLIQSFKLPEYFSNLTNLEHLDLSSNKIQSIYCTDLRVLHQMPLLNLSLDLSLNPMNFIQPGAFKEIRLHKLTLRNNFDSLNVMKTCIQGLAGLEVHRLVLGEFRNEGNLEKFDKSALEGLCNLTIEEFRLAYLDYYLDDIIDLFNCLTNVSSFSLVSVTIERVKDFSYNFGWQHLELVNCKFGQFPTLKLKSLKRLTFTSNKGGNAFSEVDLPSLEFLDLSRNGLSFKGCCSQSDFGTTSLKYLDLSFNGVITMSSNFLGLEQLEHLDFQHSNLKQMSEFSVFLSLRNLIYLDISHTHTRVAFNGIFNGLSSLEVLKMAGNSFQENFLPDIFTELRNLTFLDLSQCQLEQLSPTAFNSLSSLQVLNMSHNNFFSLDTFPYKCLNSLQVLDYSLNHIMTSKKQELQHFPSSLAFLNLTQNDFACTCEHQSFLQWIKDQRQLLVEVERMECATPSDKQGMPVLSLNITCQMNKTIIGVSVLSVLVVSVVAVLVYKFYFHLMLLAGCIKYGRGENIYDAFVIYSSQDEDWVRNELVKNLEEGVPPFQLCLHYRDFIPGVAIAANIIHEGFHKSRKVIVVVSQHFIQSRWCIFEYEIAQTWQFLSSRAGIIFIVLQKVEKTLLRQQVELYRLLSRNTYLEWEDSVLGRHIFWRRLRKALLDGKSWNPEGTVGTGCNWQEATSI

## COC(=O)C1=CO[C@@H](O[C@@H]2O[C@H](CO)[C@@H](O)[C@H](O)[C@H]2O)[C@@H]2C(CO)=CC[C@H]12 [geniposide]
  K D: 6.716e^−6 M
